Test results published in ChEMBL document CHEMBL1201862, “PubChem BioAssay data set” (2004).
Calls of active or inactive are those of the source.

Assays:
[1] = KCNQ1 channel current modulation by KCNQ2 openers, dose response, selectivity assay for KCNQ2 activator project, automated patch clamp, KCNQ1-CHO cells (AID 493044); type: functional, cell-based
[2] = KCNQ1/KCNE1 channel current potentiation, dose response, selectivity assay for KCNQ2 activator project, automated patch clamp, CHO cells (AID 493042); type: functional
[3] = target: Potassium voltage-gated channel subfamily KQT member 2 (Rattus norvegicus, UniProt O88943); assay: Mode of action assay-Dose response assay for compounds that activate KCNQ2 potassium channels on automated patch clamp. [Related pubchem assays (depositor defined):AID2239, AID2258, AID2287, AID493113]; type: functional
[4] = target: T1, Potassium voltage-gated channel subfamily KQT member 4 (Homo sapiens, UniProt P56696); assay: human KCNQ4 channel current potentiation, dose response, selectivity assay for KCNQ2 activator project, automated patch clamp, CHO cells (AID 493043); type: functional, cell-based
[5] = target: Potassium voltage-gated channel subfamily KQT member 2/member 3 (Rattus norvegicus, UniProt O88943+O88944); assay: Mode of action assay-Dose response assay for KCNQ2 activators in the KCNQ2/KCNQ3 co-expressing cells on automated patch clamp. [Related pubchem assays (depositor defined):AID2239, AID2258, AID2287]; type: functional
[6] = target: T1, Potassium voltage-gated channel subfamily KQT member 4; assay: KCNQ4 channel modulation, potentiation or inhibition, dose response, selectivity assay for KCNQ2 activator project, thallium flux, KCNQ4-expressing cells (AID 504416); type: functional, cell-based
HEK293 [7] = assay: cytotoxicity in HEK293T NF-kB-Luc cells, SAR follow-up, cytotoxicity control for NF-kB activator project, cell-based, resazurin fluorescence (AID 493251); type: functional; conditions: Homo sapiens
Jurkat = assay: SAR Analysis of small molecule inhibitors of T-cell specific antigen receptor-induced NF-kB activation in a Jurkat cell line using a luminescence assay. [Related pubchem assays (depositor defined):AID435003, AID435012, AID465]; type: functional, cell-based; conditions: Homo sapiens
HEK293 [8] = assay: SAR Analysis of small molecule inhibitors of T-cell specific antigen receptor-induced NF-kB activation in a HEK-293T cell line using a luminescence assay. [Related pubchem assays (depositor defined):AID435003, AID435012, AID489026]; type: functional, cell-based; conditions: Homo sapiens
[9] = target: T2, Platelet-activating factor acetylhydrolase 2, cytoplasmic (Mus musculus, UniProt Q8VDG7); assay: Late stage assay provider results from the probe development effort to identify inhibitors of PAFAH2: fluorescence-based cell-based gel-based Activity-Based Protein Profiling (ABPP) IC50. [Related pubchem assays (depositor defined):AID492956, AID492969, AID493030]; type: functional
[10] = target: T2, Platelet-activating factor acetylhydrolase 2, cytoplasmic; assay: Late stage assay provider results from the probe development effort to identify inhibitors of PAFAH2: Fluorescence-based biochemical gel-based Activity-Based Protein Profiling (ABPP) IC50. [Related pubchem assays (depositor defined):AID492956, AID492969, AID493030]
Phospholipase D1 = Phospholipase D1 (Homo sapiens, UniProt Q13393); assay: PLD1 inhibitor potency in cells, dose response (AID 602151); type: functional;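 also: cellular PLD1 assay in Calu-1 cells stimulated with PMA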
Phospholipase D2 = Phospholipase D2 (Homo sapiens, UniProt O14939); assay: PLD2 inhibitor potency in cells, dose response (AID 602147); type: functional;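 also: cellular assay in HEK293 cells overexpressing GFP-tagged PLD2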
[11] = target: T3, Dual specificity protein phosphatase 3 (Homo sapiens, UniProt P51452); assay: VHR1 phosphatase inhibitors, primary screen, biochemical, absorbance, uHTS (AID 1654)
[12] = target: T3, Dual specificity protein phosphatase 3; assay: VHR1 phosphatase inhibitors, biochemical (AID 1878)
[13] = target: T4, Dual specificity protein phosphatase 6 (Rattus norvegicus, UniProt Q64346); assay: MKP-3 phosphatase inhibitors, primary screen, biochemical, rat enzyme, in vitro (AID 425)
T4 sequence (Q64346 whole entry): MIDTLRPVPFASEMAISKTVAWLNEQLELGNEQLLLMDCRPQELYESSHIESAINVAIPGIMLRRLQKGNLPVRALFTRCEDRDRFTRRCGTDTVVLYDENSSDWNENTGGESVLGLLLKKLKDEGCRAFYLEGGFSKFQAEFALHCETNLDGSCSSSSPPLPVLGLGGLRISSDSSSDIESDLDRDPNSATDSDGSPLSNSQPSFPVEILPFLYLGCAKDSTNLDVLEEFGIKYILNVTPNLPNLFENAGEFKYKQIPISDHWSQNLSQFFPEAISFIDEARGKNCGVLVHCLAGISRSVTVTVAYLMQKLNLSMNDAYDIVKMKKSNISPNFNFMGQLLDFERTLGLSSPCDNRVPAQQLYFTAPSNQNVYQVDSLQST

[14] = target: Beta-adrenergic receptor kinase 1 (Homo sapiens, UniProt P25098); assay: aptamer displacement from bead-bound GRK2 – biochemical, cherry pick 1, bead flow cytometry, dose response (AID 504500)
[15] = target: T5, Short transient receptor potential channel 4 (Mus musculus, UniProt Q9QUQ5); assay: mouse TRPC4 channel activators, dose response, cell-based, HEK293 TRPC4/mu-opioid, Fluo-4 calcium (AID 434937); type: functional
T5 sequence (Q9QUQ5 whole entry): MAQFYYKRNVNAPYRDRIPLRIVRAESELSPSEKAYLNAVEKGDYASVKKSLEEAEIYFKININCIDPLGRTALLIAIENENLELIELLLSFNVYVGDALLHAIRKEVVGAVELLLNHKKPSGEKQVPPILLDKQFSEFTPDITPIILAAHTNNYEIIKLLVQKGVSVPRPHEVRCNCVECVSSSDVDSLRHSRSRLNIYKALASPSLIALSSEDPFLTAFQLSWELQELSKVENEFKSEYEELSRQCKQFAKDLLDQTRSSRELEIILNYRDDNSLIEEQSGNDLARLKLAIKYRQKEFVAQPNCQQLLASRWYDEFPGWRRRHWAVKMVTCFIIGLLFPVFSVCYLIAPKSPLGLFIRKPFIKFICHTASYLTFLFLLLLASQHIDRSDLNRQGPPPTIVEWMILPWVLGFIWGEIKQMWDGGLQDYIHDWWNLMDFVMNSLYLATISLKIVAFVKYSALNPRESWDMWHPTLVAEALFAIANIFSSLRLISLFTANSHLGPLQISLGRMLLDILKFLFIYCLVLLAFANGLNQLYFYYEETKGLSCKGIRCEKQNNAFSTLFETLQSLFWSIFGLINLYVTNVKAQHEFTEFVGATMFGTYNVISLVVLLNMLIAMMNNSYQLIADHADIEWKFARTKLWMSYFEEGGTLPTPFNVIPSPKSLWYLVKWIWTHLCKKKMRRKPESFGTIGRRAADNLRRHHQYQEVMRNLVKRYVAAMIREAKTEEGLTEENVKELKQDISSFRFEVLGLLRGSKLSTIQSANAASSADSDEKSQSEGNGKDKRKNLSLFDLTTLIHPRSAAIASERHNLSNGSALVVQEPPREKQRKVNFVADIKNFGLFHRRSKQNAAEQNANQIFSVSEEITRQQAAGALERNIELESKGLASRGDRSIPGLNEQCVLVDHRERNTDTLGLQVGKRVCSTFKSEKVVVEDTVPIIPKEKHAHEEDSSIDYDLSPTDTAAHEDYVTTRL

Cysteine protease ATG4B = Cysteine protease ATG4B (Homo sapiens, UniProt Q9Y4P1); type: functional;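 also: Fluorescence-based dose-response confirmation assay measuring inhibition of ATG4B activity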
Phospholipase A2 = Phospholipase A2 (Homo sapiens, UniProt P04054); type: functional;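 also: confirmatory dose-response counterscreen on phospholipase A2, testing hits that came from an ultra-high-throughput screen for ATG4B inhibitors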
[16] = target: Multidrug resistance protein CDR1 (Candida albicans, UniProt P43071); assay: CaCDR1 efflux pump inhibitors in yeast, dose response, S. cerevisiae AD1-8u, singleplex, Cherry Pick1 hits (AID 588606); type: functional
[17] = target: Multidrug resistance protein CDR2 (Candida albicans (strain SC5314 / ATCC MYA-2876) (Yeast), UniProt P78595); assay: CaCDR2 efflux pump inhibitors in yeast, dose response, S. cerevisiae AD1-8u, singleplex, Cherry Pick1 hits (AID 588604); type: functional
[18] = target: Dual specificity tyrosine-phosphorylation-regulated kinase 1A (Rattus norvegicus, UniProt Q63470); type: biochemical, Homo sapiens
[19] = target: T6, Small ubiquitin-related modifier 1 (Homo sapiens, UniProt P63165); assay: inhibitors of SUMO1 peptide binding, dose response, biochemical, fluorescence polarization, uHTS hits (AID 624382); type: functional; conditions: read-out: IC50_Mean
[20] = target: T6, Small ubiquitin-related modifier 1; assay: inhibitors of SUMO1 partner interactions, dose response, biochemical, FRET (AID 624383); type: functional; conditions: read-out: IC50_Mean
[21] = target: T7, Rac GTPase-activating protein 1 (Homo sapiens, UniProt Q9H0H5); assay: MgcRacGAP GTPase-activating activity inhibitors, confirmation, biochemical, ADP Hunter fluorescence, primary and confirmatory (AID 624330); type: functional
T7 sequence (Q9H0H5 whole entry): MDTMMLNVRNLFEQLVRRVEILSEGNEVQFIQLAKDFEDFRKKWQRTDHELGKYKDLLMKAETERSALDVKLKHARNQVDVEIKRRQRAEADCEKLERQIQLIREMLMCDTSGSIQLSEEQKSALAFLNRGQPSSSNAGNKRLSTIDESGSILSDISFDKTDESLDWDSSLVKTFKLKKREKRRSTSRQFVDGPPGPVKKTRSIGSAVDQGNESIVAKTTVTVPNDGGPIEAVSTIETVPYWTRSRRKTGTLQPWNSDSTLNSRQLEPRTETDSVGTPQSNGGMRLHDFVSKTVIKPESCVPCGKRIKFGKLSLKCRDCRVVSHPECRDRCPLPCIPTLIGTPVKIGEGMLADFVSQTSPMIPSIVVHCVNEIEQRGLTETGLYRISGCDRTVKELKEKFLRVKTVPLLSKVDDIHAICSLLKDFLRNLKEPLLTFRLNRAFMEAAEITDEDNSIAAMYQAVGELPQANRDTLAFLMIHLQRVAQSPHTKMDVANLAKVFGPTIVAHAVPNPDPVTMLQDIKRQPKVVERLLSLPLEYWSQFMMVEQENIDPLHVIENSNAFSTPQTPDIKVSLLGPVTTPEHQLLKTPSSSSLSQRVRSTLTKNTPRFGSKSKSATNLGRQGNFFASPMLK

Insulin-degrading enzyme [22] = target: T8, Insulin-degrading enzyme (Homo sapiens, UniProt P14735); assay: activators of recombinant IDE enzyme, dose response, counter-screen for IDE activator project, biochemical, fluorescence polarization (AID 588681)
Insulin-degrading enzyme [23] = target: T8, Insulin-degrading enzyme; assay: activators of endogenous IDE in HEK cells, dose response, cell-based, fluorescence polarization (AID 588439); type: functional
HEK293 [24] = assay: HEK cell cytotoxicity by LDH release, dose response, cytotoxicity control for IDE activator project, fluorescence, HEK cells (AID 588440); type: functional, cell-based; conditions: Homo sapiens;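 also: cytotoxicity by LDH release measuring loss of membrane integrity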
HEK293 [25] = assay: optical interference in Abeta FP readout, dose response, artefact control for IDE activator project, biochemical, fluorescence polarization (AID 588442); type: functional, cell-based; conditions: Homo sapiens
[26] = target: T9, Carboxy-terminal domain RNA polymerase II polypeptide A small phosphatase 1 (Homo sapiens, UniProt Q9GZU7); assay: inhibitors of CTDSP1, concentration-response testing, biochemical assay, absorbance-based, actives from ultra-high-throughput screening (AID 540297); type: functional
T9 sequence (Q9GZU7 whole entry): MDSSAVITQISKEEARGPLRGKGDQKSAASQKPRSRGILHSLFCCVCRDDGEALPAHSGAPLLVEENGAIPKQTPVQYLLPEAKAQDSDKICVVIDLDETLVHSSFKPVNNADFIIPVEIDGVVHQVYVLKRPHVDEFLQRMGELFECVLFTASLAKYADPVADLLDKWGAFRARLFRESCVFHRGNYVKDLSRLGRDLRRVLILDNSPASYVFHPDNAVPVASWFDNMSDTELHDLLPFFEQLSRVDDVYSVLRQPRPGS

T8 sequence (P14735 whole entry): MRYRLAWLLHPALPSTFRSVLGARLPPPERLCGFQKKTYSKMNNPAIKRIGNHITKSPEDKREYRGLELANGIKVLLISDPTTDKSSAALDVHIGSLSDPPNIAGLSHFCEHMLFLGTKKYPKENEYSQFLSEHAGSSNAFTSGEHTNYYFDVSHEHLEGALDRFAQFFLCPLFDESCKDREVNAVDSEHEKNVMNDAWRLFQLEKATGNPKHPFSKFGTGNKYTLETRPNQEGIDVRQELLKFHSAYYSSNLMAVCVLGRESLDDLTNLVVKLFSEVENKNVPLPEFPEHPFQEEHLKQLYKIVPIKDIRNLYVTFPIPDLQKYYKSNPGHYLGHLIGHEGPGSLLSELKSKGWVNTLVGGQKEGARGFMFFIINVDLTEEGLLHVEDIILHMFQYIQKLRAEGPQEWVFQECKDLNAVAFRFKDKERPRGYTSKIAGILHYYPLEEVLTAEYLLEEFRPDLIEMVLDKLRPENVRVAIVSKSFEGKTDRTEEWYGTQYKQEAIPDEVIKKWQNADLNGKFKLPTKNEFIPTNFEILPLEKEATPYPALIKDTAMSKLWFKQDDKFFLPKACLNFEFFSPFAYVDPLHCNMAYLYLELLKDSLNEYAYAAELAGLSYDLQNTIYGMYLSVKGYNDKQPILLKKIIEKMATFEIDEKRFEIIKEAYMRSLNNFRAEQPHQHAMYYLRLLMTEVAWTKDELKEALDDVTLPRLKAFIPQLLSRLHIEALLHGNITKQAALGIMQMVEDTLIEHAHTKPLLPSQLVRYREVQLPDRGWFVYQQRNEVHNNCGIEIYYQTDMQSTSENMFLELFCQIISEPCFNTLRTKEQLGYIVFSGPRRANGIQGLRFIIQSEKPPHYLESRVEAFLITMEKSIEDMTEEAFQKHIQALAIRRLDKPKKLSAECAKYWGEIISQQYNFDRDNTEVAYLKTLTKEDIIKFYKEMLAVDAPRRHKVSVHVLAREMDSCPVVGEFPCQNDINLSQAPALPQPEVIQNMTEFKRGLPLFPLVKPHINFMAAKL
T6 sequence (P63165 whole entry): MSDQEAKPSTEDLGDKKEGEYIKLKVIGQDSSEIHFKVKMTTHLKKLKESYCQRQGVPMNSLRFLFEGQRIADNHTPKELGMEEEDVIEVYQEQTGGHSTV
T1 sequence (P56696 whole entry): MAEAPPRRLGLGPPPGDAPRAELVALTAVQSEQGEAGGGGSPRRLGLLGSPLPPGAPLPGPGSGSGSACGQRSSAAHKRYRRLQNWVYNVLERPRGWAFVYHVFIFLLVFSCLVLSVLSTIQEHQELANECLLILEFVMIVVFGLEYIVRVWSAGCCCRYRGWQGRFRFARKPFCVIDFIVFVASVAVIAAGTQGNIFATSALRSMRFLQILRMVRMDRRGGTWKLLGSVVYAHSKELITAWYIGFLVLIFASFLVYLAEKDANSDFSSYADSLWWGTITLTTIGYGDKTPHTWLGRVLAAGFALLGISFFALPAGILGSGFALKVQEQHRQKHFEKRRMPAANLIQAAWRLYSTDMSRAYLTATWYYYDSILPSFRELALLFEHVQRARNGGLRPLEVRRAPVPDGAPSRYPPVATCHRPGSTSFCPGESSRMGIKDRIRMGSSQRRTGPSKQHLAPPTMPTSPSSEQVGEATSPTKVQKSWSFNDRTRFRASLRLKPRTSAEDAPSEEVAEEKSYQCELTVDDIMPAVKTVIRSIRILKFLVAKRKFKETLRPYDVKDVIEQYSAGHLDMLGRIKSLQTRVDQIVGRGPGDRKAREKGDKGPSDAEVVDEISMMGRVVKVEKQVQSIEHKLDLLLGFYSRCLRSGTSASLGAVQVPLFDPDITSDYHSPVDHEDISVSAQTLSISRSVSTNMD
T3 sequence (P51452 whole entry): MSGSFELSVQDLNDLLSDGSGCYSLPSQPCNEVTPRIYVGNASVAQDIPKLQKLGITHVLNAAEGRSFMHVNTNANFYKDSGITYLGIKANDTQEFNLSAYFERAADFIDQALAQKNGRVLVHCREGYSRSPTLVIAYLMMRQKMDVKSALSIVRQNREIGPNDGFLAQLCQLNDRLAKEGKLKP
T2 sequence (Q8VDG7 whole entry): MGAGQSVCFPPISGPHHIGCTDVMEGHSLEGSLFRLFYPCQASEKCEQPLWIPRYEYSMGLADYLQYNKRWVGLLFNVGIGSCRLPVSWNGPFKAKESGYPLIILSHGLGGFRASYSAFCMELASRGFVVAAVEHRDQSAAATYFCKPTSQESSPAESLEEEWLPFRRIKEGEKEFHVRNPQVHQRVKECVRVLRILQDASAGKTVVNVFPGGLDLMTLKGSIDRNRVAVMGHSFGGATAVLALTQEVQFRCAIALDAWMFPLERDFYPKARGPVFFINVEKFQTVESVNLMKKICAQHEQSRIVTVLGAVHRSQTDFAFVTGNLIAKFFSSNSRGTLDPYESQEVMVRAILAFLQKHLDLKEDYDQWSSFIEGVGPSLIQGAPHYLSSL
Chain of Cysteine protease ATG4B (Q9Y4P1 whole entry): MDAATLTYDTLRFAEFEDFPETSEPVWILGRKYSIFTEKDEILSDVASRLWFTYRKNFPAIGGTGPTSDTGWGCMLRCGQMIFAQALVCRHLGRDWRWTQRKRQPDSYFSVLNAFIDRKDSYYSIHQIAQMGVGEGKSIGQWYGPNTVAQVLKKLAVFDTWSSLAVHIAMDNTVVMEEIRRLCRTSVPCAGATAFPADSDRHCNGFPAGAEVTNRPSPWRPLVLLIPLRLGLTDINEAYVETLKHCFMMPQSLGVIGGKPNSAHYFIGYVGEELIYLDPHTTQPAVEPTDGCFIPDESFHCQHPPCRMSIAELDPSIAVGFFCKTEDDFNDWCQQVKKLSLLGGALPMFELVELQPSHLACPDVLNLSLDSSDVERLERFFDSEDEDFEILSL
Chain of Beta-adrenergic receptor kinase 1 (P25098 whole entry): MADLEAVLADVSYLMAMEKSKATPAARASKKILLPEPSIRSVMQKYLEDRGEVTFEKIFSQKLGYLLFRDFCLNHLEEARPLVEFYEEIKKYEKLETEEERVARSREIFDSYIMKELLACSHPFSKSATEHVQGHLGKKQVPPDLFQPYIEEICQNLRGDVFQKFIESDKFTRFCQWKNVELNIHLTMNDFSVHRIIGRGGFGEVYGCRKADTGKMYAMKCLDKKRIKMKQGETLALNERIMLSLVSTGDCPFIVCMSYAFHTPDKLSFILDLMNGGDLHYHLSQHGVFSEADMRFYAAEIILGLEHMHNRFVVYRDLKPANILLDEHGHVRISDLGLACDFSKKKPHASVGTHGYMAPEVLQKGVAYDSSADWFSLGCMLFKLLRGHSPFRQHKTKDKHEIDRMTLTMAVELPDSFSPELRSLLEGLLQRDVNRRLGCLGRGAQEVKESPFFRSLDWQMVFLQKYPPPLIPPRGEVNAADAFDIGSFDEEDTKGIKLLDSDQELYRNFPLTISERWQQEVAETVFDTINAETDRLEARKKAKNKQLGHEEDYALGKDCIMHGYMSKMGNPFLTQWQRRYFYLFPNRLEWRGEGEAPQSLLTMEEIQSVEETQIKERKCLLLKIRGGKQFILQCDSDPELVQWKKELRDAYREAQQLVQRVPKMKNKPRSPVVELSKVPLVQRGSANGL
Chain of Multidrug resistance protein CDR2 (P78595 whole entry): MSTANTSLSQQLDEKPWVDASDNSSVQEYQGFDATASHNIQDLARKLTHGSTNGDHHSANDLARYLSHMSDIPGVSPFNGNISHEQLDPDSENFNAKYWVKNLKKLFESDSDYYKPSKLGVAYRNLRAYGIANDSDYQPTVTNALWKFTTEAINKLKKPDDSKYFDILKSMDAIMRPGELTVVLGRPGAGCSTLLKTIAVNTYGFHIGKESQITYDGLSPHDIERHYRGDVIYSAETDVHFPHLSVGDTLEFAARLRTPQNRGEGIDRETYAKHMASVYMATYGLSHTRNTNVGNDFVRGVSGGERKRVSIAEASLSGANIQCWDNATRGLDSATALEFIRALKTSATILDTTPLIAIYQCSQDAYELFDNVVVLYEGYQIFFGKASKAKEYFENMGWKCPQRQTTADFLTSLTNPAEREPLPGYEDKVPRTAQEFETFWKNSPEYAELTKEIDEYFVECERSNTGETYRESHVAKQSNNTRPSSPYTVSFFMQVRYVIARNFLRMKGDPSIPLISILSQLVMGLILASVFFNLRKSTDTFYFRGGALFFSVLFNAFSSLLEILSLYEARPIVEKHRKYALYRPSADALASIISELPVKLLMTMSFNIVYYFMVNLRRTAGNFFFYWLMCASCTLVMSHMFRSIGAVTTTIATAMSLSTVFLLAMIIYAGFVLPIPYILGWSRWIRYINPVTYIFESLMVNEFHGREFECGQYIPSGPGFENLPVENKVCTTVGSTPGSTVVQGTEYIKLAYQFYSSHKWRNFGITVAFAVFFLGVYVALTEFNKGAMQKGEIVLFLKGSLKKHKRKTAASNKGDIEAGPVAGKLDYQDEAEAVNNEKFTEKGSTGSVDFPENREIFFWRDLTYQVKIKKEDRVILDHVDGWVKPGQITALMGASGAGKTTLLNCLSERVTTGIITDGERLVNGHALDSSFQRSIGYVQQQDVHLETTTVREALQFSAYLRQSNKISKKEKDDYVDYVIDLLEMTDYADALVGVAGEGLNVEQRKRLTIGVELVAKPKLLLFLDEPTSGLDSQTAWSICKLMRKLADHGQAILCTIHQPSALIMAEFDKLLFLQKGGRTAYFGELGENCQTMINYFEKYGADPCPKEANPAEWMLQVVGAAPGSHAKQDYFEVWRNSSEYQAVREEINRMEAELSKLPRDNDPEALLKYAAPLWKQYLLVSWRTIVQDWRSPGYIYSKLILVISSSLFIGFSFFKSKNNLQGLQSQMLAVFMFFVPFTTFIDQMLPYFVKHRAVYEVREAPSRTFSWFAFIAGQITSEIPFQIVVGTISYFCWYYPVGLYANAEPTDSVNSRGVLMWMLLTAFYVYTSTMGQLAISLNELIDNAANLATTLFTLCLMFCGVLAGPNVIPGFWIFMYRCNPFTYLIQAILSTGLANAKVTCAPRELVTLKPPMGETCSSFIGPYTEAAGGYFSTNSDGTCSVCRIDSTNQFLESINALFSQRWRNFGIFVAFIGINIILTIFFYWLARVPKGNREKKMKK

Cc1ccc(C)c(NC(=O)C2CC3CCC2C3)c1 (stereo unspecified)
active: EC50 [1] 5.03 µM | EC50 [2] 2.68 µM | EC50 [3] 402 nM | EC50 [4] 1.63 µM | EC50 [5] 396 nM | EC50 [6] 2.64 µM

COc1ccc(C(NC(=O)c2ccccc2)c2ccc3cccnc3c2O)cc1 (stereo unspecified)
inactive: IC50 (HEK293 [8]) 23.2 µM
active: IC50 (HEK293 [7]) 6.26 µM | IC50 (Jurkat) 2.67 µM

O=C(N1CCCC1)n1ncc(-c2ccc(-c3ccccc3)cc2)n1
active: IC50 [9] 170 µM | IC50 [10] 3 nM

Cc1ccc(C(=O)N[C@@H](C)CN2CCC(n3c(=O)[nH]c4c(F)cccc43)CC2)cc1
active: IC50 (Phospholipase D1) 222 nM | IC50 (Phospholipase D2) 20 µM

O=C(O)c1ccc(-c2ccc(/C=c3/sc4nc5ccccc5n4c3=O)o2)cc1Cl
inactive: EC50 [14] 9.71 µM | IC50 (Phospholipase A2) 21.9 µM | IC50 [19] > 66.6 µM
123 µM (not active): IC50 [13]
active: IC50 [11] 5.86 µM | IC50 [12] 2.89 µM | EC50 [15] 5.96 µM | IC50 (Cysteine protease ATG4B) 12.2 µM | EC50 [16] 12.2 µM | EC50 [17] 20.3 µM | AC50 [18] 2 µM | IC50 [20] 11.5 µM | IC50 [21] 48.4 µM

O=C(N/N=C/c1cn(-c2ccccc2)nc1-c1ccc2c(c1)OCCO2)c1ccncc1
inactive: EC50 (Insulin-degrading enzyme [22]) > 54.7 µM | EC50 (Insulin-degrading enzyme [23]) > 54.7 µM | IC50 (HEK293 [24]) 29.2 µM | EC50 (HEK293 [25]) > 54.7 µM
active: IC50 [26] 6.51 µM
